Data reported in patent publication US8912224B2, “Substituted 2-(chroman-6-yloxy)-thiazoles and their use as pharmaceuticals” (Sanofi, priority 2011, dated 2014).

Experiments:
human NCX1 [1] = target: T1, human NCX1 (Homo sapiens (Human), UniProt P32418); assay: Inhibition of Ca2+ influx into cells (NCX1 reverse mode), FLIPR Fluo-4 assay; assay type: cell-based; conditions: inhibition of NCX1 in reverse mode (Ca2+ influx into cells); read-out: NCX1rv IC50
From the text: (§1) The sodium/calcium exchanger NCX1 can transport calcium ions and sodium ions through the cell membrane. The transport is an exchange of Ca^2+and Na^+in two directions depending on membrane potential and ion gradients. At the first direction, named “forward mode” or “calcium export mode”, Ca^2+is transported out of the cell and Na^+ is transported into the cell. At the other direction, named “reverse mode” or “calcium import mode”, the transport directions are vice versa. The effect of the compounds of the invention on NCX1 was determined in CHO cells stably expressing human NCX1 (gene symbol SLC8A1; cf. WO 2009/115238). The assay is based on the monitoring of intracellular Ca^2+concentrations using a calcium-sensitive fluorescence dye which is detected by means of a FLIPR device (Fluorimetric Imaging Plate Reader, Molecular Devices).
Assay Technology—Reverse Mode
The assay is based on the monitoring of intracellular Ca^2+concentrations using the calcium-sensitive dye Fluo-4. CHO cells expressing NCX1 were loaded with the dye by means of the acetoxymethyl ester Fluo-4 AM (Invitrogen, F14202), which is cleaved intracellularly by esterase activity to yield the charged species of free Fluo-4. After an preincubation period with the test compound, Gramicidine (Sigma, G5002) was added. Gramicidine is an ionophor for Na^+ions mediating an increase of intracellular Na^+ions. Consequently, intracellular Na^+ions are exchanged against extracellular Ca^2+ions (Ca^2+influx, reverse mode). The intracellular elevation of Ca^2+ ions was detected by measuring the fluorescence of Fluo-4 at a wavelength of 520 nm by a FLIPR device.
Briefly, for the reverse mode transport assay 18000 cells per well were seeded into a 96 well microplate (Corning COSTAR 3904) and incubated overnight in culture medium (1× Nut Mix F12 (Ham) (Gibco, 21765-029); 10% (v/v) fetal calf serum (PAA Gold, A15-649); 450 μg/ml Geneticin (Gibco, 10131-027)). A total volume of 100 μl medium per well was used. For the preparation of the FLIPR assay, the culture medium was removed from the plates and 100 μl of dye solution (2 μM Fluo-4 AM; 0.02% (v/v) Pluronic F-127 (20%, Invitrogen, P3000MP); 0.1% (v/v) bovine albumin solution (30% (v/v), Sigma, A9205) in assay buffer (133.8 mM NaCl (Sigma, S5886); 4.7 mM KCl (Sigma, P3911); 1.25 mM MgCl2 (Merck, 1.05833.0250); 3.5 mM CaCl2 (Merck, 1.02083.0250); 5 mM glucose (Sigma, G7021); 10 mM Hepes (Sigma, H4034); 0.01% (v/v) Pluronic F-127 (5%, Sigma, P2443); 2.5 mM Probenecid (Maybridge, SB00915EB); pH 7.4)) were added into each well. The plates were incubated in the dark at room temperature for 80 min. After the incubation period, the dye solution was removed and the wells were washed with 100 μl of assay buffer. Then 80 μl of a solution of the test compound in assay buffer in different concentrations were added into the wells. The plates were incubated at 16° C. for 45 min. Meanwhile a 60 μM solution of Gramicidine in assay buffer (4° C.) was prepared and stored in the wells of a 96 well microplate (96 well microplate, polypropylene, U-shape (Greiner Bio-One, 650201)) at 4° C. until measurement was started. The fluorescence monitoring was performed at 240 measuring points with measurement intervals of 2 sec. After the fifth measuring point, 40 μl of the Gramicidine solution were added to each well of the assay plates to give a final Gramicidine concentration of 20 μM. For the determination of the IC50 values the minimal fluorescence value was subtracted from the maximal fluorescence value for all measuring points. The calculation of the IC50 values via the percentage inhibitions of Ca^2+influx into cells (reverse mode) effected by the test compound was performed in Biost@t Speed 2.0.

human NCX1 [2] = target: T1, human NCX1; assay: Inhibition of Ca2+ efflux out of cells (NCX1 forward mode), FLIPR assay; assay type: cell-based; conditions: CHO cells stably expressing human NCX1, Ionomycin 2 μM, read-out: NCX1fw IC50
From the text: as §1
Assay Technology—Forward Mode
The assay is based on the monitoring of intracellular Ca^2+concentrations using the PBX Calcium Assay Kit from BD (Becton, Dickinson and Company) with calcium indicator dye 51-9000177BKa (BD, 640177), CHO cells expressing NCX1 were loaded with the dye, and after a preincubation period with the test compound, lonomycin (Calbiochem, 407950) was added. Ionomycin is an ionophor for Ca^2+ions mediating an increase of intracellular Ca^2+ions. Consequently, intracellular Ca^2+ions are exchanged against extracellular Na^+ions (Ca^2+efflux, forward mode). The decrease of intracellular Ca^2+ions was detected by measuring the fluorescence of the calcium indicator dye at a wavelength of 520 nm by a FLIPR device.
Briefly, similarly as for the reverse mode, for the forward mode transport assay 18000 cells per well were seeded into a 96 well microplate (Corning COSTAR 3904) and incubated overnight in culture medium (cf. above). A total volume of 100 μl medium per well was used. For the preparation of the FLIPR assay, the culture medium was removed from the plates and 100 μl of assay buffer (133.8 mM NaCl (Sigma, S5886); 4.7 mM KCl (Sigma, P3911); 1.25 mM MgCl2 (Merck, 1.05833.0250); 3.5 mM CaCl2 (Merck, 1.02083.0250); 5 mM glucose (Sigma. G7021); 10 mM Hepes (Sigma, H4034); pH 7.4)) were added to each well in a washing step. Assay buffer was removed, and 100 μl of a solution of the test compound in assay buffer in different concentrations were added into the wells. Further, 100 μl of dye solution (0.09% (v/v) calcium indicator dye, 9.1% (v/v) signal enhancer (from PBX Calcium Assay Kit); in assay buffer) were added into each well. The plates were incubated in the dark at room temperature for 60 min. Meanwhile a 10 μM solution of lonomycin in assay buffer (additionally containing 0.05% fetal calf serum (cf. above); 4° C.) was prepared and stored in the wells of a 96 well microplate (96 well microplate, polypropylene, U-shape (Greiner Bio-One, 650201)). The fluorescence monitoring was performed at 60 measuring points with measurement intervals of 2 sec. After the fifth measuring point, 50 μl of the lonomycin solution were added to each well of the assay plate to give a final lonomycin concentration of 2 μM. For the determination of the IC50 values the minimal fluorescence value was subtracted from the maximal fluorescence value for the fifteenth to fifty-fifth measuring points. The calculation of the IC50 values via the percentage inhibitions of Ca^2+efflux out of cells (forward mode) effected by the test compound was performed in Biost@t Speed 2.0. “NCX1fw IC50” in Table 2 means the IC50 value for inhibition of NCX1 in forward mode (in μM (micromol/liter)).

Sprague-Dawley rats = assay: In vivo method for determining the effect on heart contractility (left ventricular dp/dtmax) in anesthetized rats; conditions: rat, versus solvent control; for change in vivo at 0.1 mg/kg / change in vivo at 0.3 mg/kg / change in vivo at 1 mg/kg: iv, i.v. bolus injection, read-out: Contractility increase (%); for Contractility increase (%): i.v. infusion
Description: B) In vivo Method for Determining the Effect on Heart Contractility Adult male Sprague-Dawley rats (Harlan […], Germany) weighing 340 to 370 g were anesthetized with pentobarbital (100 mg/kg i.p.) and ventilated with a mixture of oxygen (40%) and room air (60%) at a tidal volume of 1 ml/100 g at 60 breaths/min. Body temperature was maintained at 36.5±0.3° C. with a heating lamp and was monitored with a rectal thermo sensor. Systemic blood pressure was measured in the left carotid artery using a pressure transducer (Combitrans; B. Braun Melsungen AG, Melsungen, Germany) connected to a DC-bridge-amplifier (PLUGSYS/ADC Type 663; Harvard Apparatus GmbH, March-Hugstetten, Germany). The electrocardiogram was measured as lead II via subcutaneously placed electrodes connected to a Heart-Rate-Module ([…] Type 669; Harvard Apparatus GmbH, March-Hugstetten, Germany). A micro-tip catheter (2 French, SPR-320; Millar Instruments, Houston, Tex., USA) was placed via the right carotid artery into the left ventricle, and the left ventricular pressure (LVP) and the end diastolic pressure (EDP) were continuously measured. Registration of the hemodynamic data was performed via an analog digital converter by a personal computer using Notocord software (HEM version 3.5). Left ventricular contractility (dp/dtmax) and relaxation (dp/dtmin) were calculated from the LVP signal. For intravenous administration of the test compounds, the left jugular vein was prepared and a PP-50 catheter was inserted. Test compounds were administered either by intravenous bolus injection or by intravenous infusion by means of an infusion pump (Unita; B. Braun Melsungen AG, Melsungen, Germany). […] In a typical experiment, several dosages of the test compound were administered subsequently at increasing doses. Statistical significance of the data obtained with drug vs control experiments, in which solvent was administered, was evaluated with the 2-sided ANOVA test (program Everstat). Increases in left ventricular contractility (percent increase) by example compounds are given in Table 3 in comparison to control experiments in which solvent was administered.

T1 sequence (P32418 whole entry, looked up): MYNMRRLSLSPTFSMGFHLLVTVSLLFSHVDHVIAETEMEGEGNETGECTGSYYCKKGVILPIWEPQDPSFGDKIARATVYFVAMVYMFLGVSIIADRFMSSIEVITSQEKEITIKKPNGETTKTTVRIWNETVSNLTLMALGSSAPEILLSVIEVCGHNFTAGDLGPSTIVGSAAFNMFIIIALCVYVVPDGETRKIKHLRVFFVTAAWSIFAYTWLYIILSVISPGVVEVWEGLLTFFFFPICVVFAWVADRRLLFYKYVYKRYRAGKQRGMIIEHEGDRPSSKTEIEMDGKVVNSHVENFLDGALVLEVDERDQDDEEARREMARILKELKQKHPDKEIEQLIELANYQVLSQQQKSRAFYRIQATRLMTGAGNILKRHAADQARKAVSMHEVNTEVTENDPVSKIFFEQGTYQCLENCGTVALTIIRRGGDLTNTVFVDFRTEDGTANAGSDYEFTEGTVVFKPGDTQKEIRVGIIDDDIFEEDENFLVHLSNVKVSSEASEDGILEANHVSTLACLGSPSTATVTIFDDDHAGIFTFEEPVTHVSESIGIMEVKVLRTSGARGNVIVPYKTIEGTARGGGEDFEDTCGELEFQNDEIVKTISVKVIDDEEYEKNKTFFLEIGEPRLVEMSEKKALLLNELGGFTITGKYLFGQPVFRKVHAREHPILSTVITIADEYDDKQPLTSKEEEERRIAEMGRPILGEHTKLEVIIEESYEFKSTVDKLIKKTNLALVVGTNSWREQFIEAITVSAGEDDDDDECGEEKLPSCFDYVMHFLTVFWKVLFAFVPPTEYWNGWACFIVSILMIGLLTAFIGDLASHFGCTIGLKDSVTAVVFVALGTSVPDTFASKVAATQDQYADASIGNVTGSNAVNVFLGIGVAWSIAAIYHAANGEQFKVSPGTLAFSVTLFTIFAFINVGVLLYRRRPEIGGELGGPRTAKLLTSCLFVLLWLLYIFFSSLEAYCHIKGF

For “2-[2-(2,6-Dimethyl-phenyl)-chroman-6-yloxy]-thiazole-5-carboxylic acid [2-(2-oxo-imidazolidin-1-yl)-ethyl]-amide [compound 347]”, the IC50 (human NCX1 [1]) was 1.5 µM.

`O=C(NC1CC1)c1cnc(Oc2ccc3c(c2)CCC(c2ccccc2)O3)s1` (stereo not drawn) [Example 315, 2-(2-Phenyl-chroman-6-yloxy)-thiazole-5-carboxylic acid cyclopropylamide] showed an IC50 (human NCX1 [2]) of 3.3 µM, a change in vivo at 0.1 mg/kg (Sprague-Dawley rats) of 28% and a change in vivo at 0.3 mg/kg (Sprague-Dawley rats) of 41%. For the same compound, the change in vivo at 1 mg/kg (Sprague-Dawley rats) was 64%.

Compound `Cc1ccccc1[C@@H]1CCc2cc(Oc3ncc(C(=O)NCCO)s3)ccc2O1` [Example 326, 2-((S)-2-o-Tolyl-chroman-6-yloxy)-thiazole-5-carboxylic acid (2-hydroxy-ethyl)-amide] has an IC50 (human NCX1 [2]) of 0.2 µM, an IC50 (human NCX1 [1]) of 0.1 µM and a change in vivo at 0.1 mg/kg (Sprague-Dawley rats) of 67%. For the same compound, the change in vivo at 0.3 mg/kg (Sprague-Dawley rats) was 105% and the change in vivo at 1 mg/kg (Sprague-Dawley rats) was 138%.

For `Cc1ccccc1C1CCc2cc(Oc3ncc(CNC(=O)CN4CCCC4=O)s3)ccc2O1` (stereo not drawn) [Example 327, 2-(2-Oxo-pyrrolidin-1-yl)-N-[2-(2-o-tolyl-chroman-6-yloxy)-thiazol-5-ylmethyl]-acetamide], the IC50 (human NCX1 [2]) was 3 µM, the IC50 (human NCX1 [1]) was 0.5 µM and the change in vivo at 0.1 mg/kg (Sprague-Dawley rats) was 9%. It also gave a change in vivo at 0.3 mg/kg (Sprague-Dawley rats) of 27% and a change in vivo at 1 mg/kg (Sprague-Dawley rats) of 55%.

For `CCCNC(=O)c1cnc(Oc2ccc3c(c2)CCC(c2ccccc2C)O3)s1` (stereo not drawn) [Example 330, 2-(2-o-Tolyl-chroman-6-yloxy)-thiazole-5-carboxylic acid propylamide], the IC50 (human NCX1 [2]) was 0.35 µM, the IC50 (human NCX1 [1]) was 0.3 µM and the change in vivo at 0.1 mg/kg (Sprague-Dawley rats) was 50%. The change in vivo at 0.3 mg/kg (Sprague-Dawley rats) was 86% and the change in vivo at 1 mg/kg (Sprague-Dawley rats) was 161%.

In the case of `Cc1ccccc1C1CCc2cc(Oc3nc(C)c(C(=O)NCc4ccno4)s3)ccc2O1` (stereo not drawn) [Example 334, 4-Methyl-2-(2-o-tolyl-chroman-6-yloxy)-thiazole-5-carboxylic acid (isoxazol-5-ylmethyl)-amide], the IC50 (human NCX1 [2]) is reported as 2.1 µM, the IC50 (human NCX1 [1]) is reported as 0.5 µM and the change in vivo at 0.1 mg/kg (Sprague-Dawley rats) is reported as 19%. The change in vivo at 0.3 mg/kg (Sprague-Dawley rats) was 41% and the change in vivo at 1 mg/kg (Sprague-Dawley rats) was 59%.

`Cc1ccc(F)cc1C1CCc2cc(Oc3ncc(C(=O)NCCO)s3)ccc2O1` (stereo not drawn) [Example 342, 2-[2-(5-Fluoro-2-methyl-phenyl)-chroman-6-yloxy]-thiazole-5-carboxylic acid (2-hydroxy-ethyl)-amide] showed an IC50 (human NCX1 [2]) of 0.7 µM, an IC50 (human NCX1 [1]) of 0.4 µM and a change in vivo at 0.1 mg/kg (Sprague-Dawley rats) of 38%. For the same compound, the change in vivo at 0.3 mg/kg (Sprague-Dawley rats) was 73% and the change in vivo at 1 mg/kg (Sprague-Dawley rats) was 146%.

`CCCNC(=O)c1cnc(Oc2ccc3c(c2)CCC(c2cc(F)ccc2C)O3)s1` (stereo not drawn) [Example 343, 2-[2-(5-Fluoro-2-methyl-phenyl)-chroman-6-yloxy]-thiazole-5-carboxylic acid propylamide] gave an IC50 (human NCX1 [2]) of 0.8 µM, an IC50 (human NCX1 [1]) of 0.5 µM and a change in vivo at 0.1 mg/kg (Sprague-Dawley rats) of 20%. The change in vivo at 0.3 mg/kg (Sprague-Dawley rats) was 25% and the change in vivo at 1 mg/kg (Sprague-Dawley rats) was 39%.

In the case of `Cc1ccccc1[C@@H]1CCc2cc(Oc3ncc(C(=O)NCCOP(=O)([O-])[O-])s3)ccc2O1.[Na+].[Na+]` [Example 345, Phosphoric acid mono-(2-{[2-((S)-2-o-tolyl-chroman-6-yloxy)-thiazole-5-carbonyl]-amino}-ethyl)ester disodium salt], the “Contractility increase (%)” value (Sprague-Dawley rats; 0.03 mg/kg/min) is reported as 32% and the “Contractility increase (%)” value (Sprague-Dawley rats; 0.1 mg/kg/min) is reported as 85%.

Work on `Cc1csc(CCNCc2cnc(Oc3ccc4c(c3)CCC(c3ccccc3)O4)s2)n1` (stereo not drawn) [compound 151, [2-(4-Methyl-thiazol-2-yl)-ethyl]-[2-(2-phenyl-chroman-6-yloxy)-thiazol-5-ylmethy]-amine] yielded an IC50 (human NCX1 [1]) of 0.4 µM.

Work on `CC[C@H](C)[C@H](NC(=O)c1cnc(Oc2ccc3c(c2)CCC(c2cccnc2)O3)s1)C(=O)O` (stereo partly drawn) [compound 270, (23,3S)-3-Methyl-2-{[2-(2-pyridin-3-yl-chroman-6-yloxy)-thiazole-5-carbonyl]-amino}-pentanoic acid] yielded an IC50 (human NCX1 [1]) of 12.5 µM.
